Test results reported in patent US9834542B2, “LXR modulators” (BRISTOL-MYERS SQUIBB COMPANY, priority 2013, dated 2017).

Biological target: T1, LXRβ (Homo sapiens, UniProt P55055)
T1 construct: Co-transfection expression plasmids, comprising full-length LXRα (pCMX-h LXRα[…] or LXRβ (pCMX-hLXRβ)); expressed in transfected cells; host or cells: CV-1 African Green Monkey Kidney Cells
T1 sequence (P55055 1-460): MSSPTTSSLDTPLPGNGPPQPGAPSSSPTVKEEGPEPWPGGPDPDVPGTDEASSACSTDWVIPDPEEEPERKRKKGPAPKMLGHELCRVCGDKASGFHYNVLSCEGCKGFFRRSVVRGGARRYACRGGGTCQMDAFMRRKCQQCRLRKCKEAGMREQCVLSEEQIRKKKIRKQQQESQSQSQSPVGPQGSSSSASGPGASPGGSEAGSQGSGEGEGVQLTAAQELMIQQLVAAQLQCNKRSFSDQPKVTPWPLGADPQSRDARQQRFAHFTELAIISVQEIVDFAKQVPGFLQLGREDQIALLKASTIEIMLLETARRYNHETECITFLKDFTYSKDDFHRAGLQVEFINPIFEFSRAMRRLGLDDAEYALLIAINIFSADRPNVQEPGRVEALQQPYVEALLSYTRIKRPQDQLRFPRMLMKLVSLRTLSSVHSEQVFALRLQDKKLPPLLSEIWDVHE
T1 sequence (P19793 1-462 partner): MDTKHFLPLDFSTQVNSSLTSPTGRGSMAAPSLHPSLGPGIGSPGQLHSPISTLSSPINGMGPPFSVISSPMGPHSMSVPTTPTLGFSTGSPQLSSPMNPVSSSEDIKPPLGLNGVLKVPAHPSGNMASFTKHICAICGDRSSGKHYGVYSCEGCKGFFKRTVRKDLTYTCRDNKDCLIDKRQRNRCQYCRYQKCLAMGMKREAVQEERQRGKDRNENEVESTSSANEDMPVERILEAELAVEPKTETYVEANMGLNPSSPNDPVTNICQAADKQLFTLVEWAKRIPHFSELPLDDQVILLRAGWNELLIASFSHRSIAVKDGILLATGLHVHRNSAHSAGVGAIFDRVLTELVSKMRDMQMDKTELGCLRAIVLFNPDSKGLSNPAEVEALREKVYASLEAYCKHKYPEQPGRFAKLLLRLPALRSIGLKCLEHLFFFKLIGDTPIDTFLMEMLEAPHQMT
Assay: Co-transfection assay (LXRE luciferase reporter), LXRβ
Type: cell-based
Set-up: % Efficacy: concentration or dose not given beside the values
Conditions: for EC50: CV-1 cells transfected with pCMX-hLXRβ and LXREx1-Tk-Luciferase, 20 hours incubation; for Emax: read-out: % Efficacy
Procedure, shortened: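 CV-1 / pCMX-hLXRβ + LXREx1-Tk-Luc + β-gal; cpd 20 h, 37 °C, ≤0.5% DMSO; Steady-Glo luminescence. 11-pt ½-log curves, duplicate wells, sigmoidal fit → EC50; % efficacy vs high-control agonist, DMSO low control; mean of ≥2 expts.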

[1] = LXRβ co-transfection, relative to high control 1-(2,4-difluorobenzyl)-2-oxo-6-(4-phenoxyphenyl)-4-(trifluoromethyl)-1,2-dihydropyridine-3-carbonitrile

SMILES | EC50 | Emax [1] | % Efficacy [1]
Cc1nc(C(F)(F)F)cn1-c1ccc(-c2cccc(C(C)(C)C(N)=O)c2)cc1-n1nncc1C(=O)c1ccc(Cl)cc1 [Example 139, 2-(3′-{5-[(4-chlorophenyl)carbonyl]-1H-1,2,3-triazol-1-yl}-4′-[2-methyl-4-(trifluoromethyl)-1H-imidazol-1-yl]biphenyl-3-yl)-2-methylpropanamide] | 1490 nM | 71% | 
Cc1cc(OC(F)(F)F)ccc1-c1cnnn1-c1cc(-c2cccc(S(C)(=O)=O)c2)ccc1-n1cc(C(F)(F)F)nc1C [Example 57, 1-{3′-(methylsulfonyl)-4-[2-methyl-4-(trifluoromethyl)-1H-imidazol-1-yl]biphenyl-3-yl}-5-{2-methyl-4-[(trifluoromethyl)oxy]phenyl}-1H-1,2,3-triazole] | 215 nM | 82% | 
COc1ccc(-c2cnnn2-c2cc(-c3cccc(S(C)(=O)=O)c3)ccc2-n2cc(C(F)(F)F)nc2C)c(OC)c1 [Example 93, 5-[2,4-bis(methyloxy)phenyl]-1-{3′-(methylsulfonyl)-4-[2-methyl-4-(trifluoromethyl)-1H-imidazol-1-yl]biphenyl-3-yl}-1H-1,2,3-triazole] | 2150 nM | 40% | 
Cc1nc(C(F)(F)F)cn1-c1ccc(-c2cccc(S(C)(=O)=O)c2)cc1-n1nncc1C(C)c1ccc(Cl)cc1 (centres unmarked) [Example 108, 5-[1-(4-chlorophenyl)ethyl]-1-{3′-(methylsulfonyl)-4-[2-methyl-4-(trifluoromethyl)-1H-imidazol-1-yl]biphenyl-3-yl}-1H-1,2,3-triazole] | 149 nM | 62% | 
Cc1nc(C(F)(F)F)cn1-c1ccc(-c2cccc(S(C)(=O)=O)c2)cc1-n1nncc1C1(c2ccc(Cl)cc2)CC1 [Example 112, 5-[1-(4-chlorophenyl)cyclopropyl]-1-{3′-(methylsulfonyl)-4-[2-methyl-4-(trifluoromethyl)-1H-imidazol-1-yl]biphenyl-3-yl}-1H-1,2,3-triazole] | 973 nM | 53% | 
CCS(=O)(=O)c1cccc(-c2ccc(-n3cc(C(F)F)nc3C)c(-c3cnnn3Cc3ccc(Cl)cc3)c2)c1 [Example 247, 1-(4-chlorobenzyl)-5-(4-(4-(difluoromethyl)-2-methyl-1H-imidazol-1-yl)-3′-(ethylsulfonyl)-[1,1′-biphenyl]-3-yl)-1H-1,2,3-triazole] | 315 nM | 99% | 
Cc1nc(C(F)(F)F)cn1-c1ccc(-c2cccc(S(C)(=O)=O)c2)cc1-c1ocnc1-c1ccc(Cl)cc1 [Example 360, 4-(4-chlorophenyl)-5-{3′-(methylsulfonyl)-4-[2-methyl-4-(trifluoromethyl)-1H-imidazol-1-yl]biphenyl-3-yl}-1,3-oxazole] | 170 nM | 93% | 
Cc1nc(C(F)(F)F)cn1-c1ccc(-c2ccc(CO)c(S(C)(=O)=O)c2)cc1-n1nncc1-c1ccc(OC(F)(F)F)cc1 [Example 90, [3-(methylsulfonyl)-4′-[2-methyl-4-(trifluoromethyl)-1H-imidazol-1-yl]-3′-(5-{4-[(trifluoromethyl)oxy]phenyl}-1H-1,2,3-triazol-1-yl)biphenyl-4-yl]methanol] | 176 nM | 105% | 
Cc1nc(C(F)(F)F)cn1-c1ccc(-c2cccc(S(C)(=O)=O)c2)cc1-n1nncc1-c1ccc(F)cc1 [Example 43, 5-(4-fluorophenyl)-1-{3′-(methylsulfonyl)-4-[2-methyl-4-(trifluoromethyl)-1H-imidazol-1-yl]biphenyl-3-yl}-1H-1,2,3-triazole] | 1140 nM | 85% | 
CS(=O)(=O)c1cccc(-c2cc(Cl)c(-n3cnc(C(F)(F)F)c3)c(-n3nncc3-c3ccc(OC(F)(F)F)cc3)c2)c1 [Example 192, 1-{5-chloro-3′-(methylsulfonyl)-4-[4-(trifluoromethyl)-1H-imidazol-1-yl]biphenyl-3-yl}-5-{4-[(trifluoromethyl)oxy]phenyl}-1H-1,2,3-triazole] | 598 nM | 42% | 
Cc1nc(C(F)(F)F)cn1-c1ccc(-c2cccc(C(C)(C)C(N)=O)c2)cc1-n1nncc1C(=O)c1ccc(C(F)(F)F)cc1 [Example 135, 2-methyl-2-{4′-[2-methyl-4-(trifluoromethyl)-1H-imidazol-1-yl]-3′-(5-{[4-(trifluoromethyl)phenyl]carbonyl}-1H-1,2,3-triazol-1-yl)biphenyl-3-yl}propanamide] | 886 nM | 70% | 

The remaining lines, values ahead:

EC50 | Emax [1] | % Efficacy [1] | SMILES
226 nM | 31% |  | Cc1nc(C(F)(F)F)cn1-c1ccc(-c2cc(F)c(CO)c(S(C)(=O)=O)c2)cc1-c1nc(C(C)CO)oc1-c1ccc(OC(F)(F)F)cc1 (centres unmarked) [Example 554, 2-(4-(3′-fluoro-4′-(hydroxymethyl)-4-(2-methyl-4-(trifluoromethyl)-1H-imidazol-1-yl)-5′-(methylsulfonyl)-[1,1′-biphenyl]-3-yl)-5-(4-(trifluoromethoxy)phenyl)oxazol-2-yl)propan-1-ol]
66 nM | 65% |  | Cc1nc(-c2cc(-c3cc(F)c(CO)c(S(C)(=O)=O)c3)ccc2-n2cc(Cl)nc2C)c(-c2ccc(OC(F)F)c(F)c2)o1 [Example 467, (4′-(4-chloro-2-methyl-1H-imidazol-1-yl)-3′-(5-(4-(difluoromethoxy)-3-fluorophenyl)-2-methyloxazol-4-yl)-3-fluoro-5-(methylsulfonyl)biphenyl-4-yl)methanol]
126 nM | 61% |  | Cc1cc(-c2oc(C)nc2-c2cc(-c3cccc(S(C)(=O)=O)c3)ccc2-n2cc(C(F)(F)F)nc2C)cc(Cl)n1 [Example 451, 5-(2-chloro-6-methylpyridin-4-yl)-2-methyl-4-(4-(2-methyl-4-(trifluoromethyl)-1H-imidazol-1-yl)-3′-(methylsulfonyl)biphenyl-3-yl)oxazole]
252 nM | 76% |  | Cc1nc(C(F)(F)F)cn1-c1c(F)cc(-c2cc(Cl)c(CO)c(S(C)(=O)=O)c2)cc1-n1nncc1-c1ccc(OC(F)(F)F)cc1 [Example 197, [3-chloro-3′-fluoro-5-(methylsulfonyl)-4′-[2-methyl-4-(trifluoromethyl)-1H-imidazol-1-yl]-5′-(5-{4-[(trifluoromethyl)oxy]phenyl}-1H-1,2,3-triazol-1-yl)biphenyl-4-yl]methanol]
270 nM |  | 41% | Cc1nc(-c2cc(-c3cc(F)c(CO)c(S(C)(=O)=O)c3)ccc2-n2cc(C(C)O)nc2C)c(-c2ccc3c(c2)OC(F)(F)O3)o1 (single isomer, unassigned) [Example 516, 1-(1-(3-(5-(2,2-difluorobenzo[d][1,3]dioxol-5-yl)-2-methyloxazol-4-yl)-3′-fluoro-4′-(hydroxymethyl)-5′-(methylsulfonyl)-[1,1′-biphenyl]-4-yl)-2-methyl-1H-imidazol-4-yl)ethanol]
43 nM | 88% |  | Cc1nc(-c2cc(-c3ccc(CO)c(S(C)(=O)=O)c3)ccc2-n2cc(C(F)(F)F)nc2C)c(-c2ccc(OC(F)F)c(F)c2)o1 [Example 402, (3′-(5-(4-(difluoromethoxy)-3-fluorophenyl)-2-methyloxazol-4-yl)-4′-(2-methyl-4-(trifluoromethyl)-1H-imidazol-1-yl)-3-(methylsulfonyl)biphenyl-4-yl)methanol]
617 nM | 62% |  | Cc1nc(C(F)(F)F)cn1-c1ccc(-c2ccc(CO)c(S(C)(=O)=O)c2)cc1-c1nc(CC(C)O)oc1-c1ccc(OC(F)(F)F)cc1 (centres unmarked) [Example 535, 1-(4-(4′-(hydroxymethyl)-4-(2-methyl-4-(trifluoromethyl)-1H-imidazol-1-yl)-3'-(methylsulfonyl)-[1,1′-biphenyl]-3-yl)-5-(4-(trifluoromethoxy)phenyl)oxazol-2-yl)propan-2-ol]
332 nM | 55% |  | Cc1nc(-c2cc(-c3cccc(S(C)(=O)=O)c3)ccc2-n2cc(C(F)(F)F)nc2C)c(-c2ccc(OC3CCCCC3)nc2)o1 [Example 408, 5-(6-(cyclohexyloxy)pyridin-3-yl)-2-methyl-4-(4-(2-methyl-4-(trifluoromethyl)-1H-imidazol-1-yl)-3′-(methylsulfonyl)biphenyl-3-yl)oxazole]
